Data as given in patent US20240287131A1, “PEPTIDE” (AGC Inc., priority 2021, published 2024).

Tested on: HeLa cells
Experiment: Evaluation of ability to permeate cell membrane (uptake into cells, flow cytometry of Alexa Fluor 647 fluorescence)
Type: cell-based
Settings: 1.5 μM sample solution, 37° C., 1 hour; ratio to fluorescent dye 1
Protocol: A DMSO solution of the synthesized peptide fluorescent conjugates 1, 4, and 5, and fluorescent dye 1 was diluted using a DMEM low-glucose culture solution to a concentration of 1.5 μM, the concentration of the DMSO contained was adjusted to 0.15%, and the resulting solution was used as a sample solution for a cell membrane permeability test.
HeLa cells were seeded in a 96-well cell culture plate 24 hours before peptide treatment (0.5×10^5 cells/well).
The medium of HeLa cells pre-cultured at 37° C. for 24 hours was replaced with a sample solution of the peptide fluorescent conjugates 1, 4, and 5 and the fluorescent dye 1, and the ability to permeate a cell membrane after culturing at 37° C. for 1 hour was evaluated. […] The collected cells were analyzed by flow cytometry (guava easyCyte (trademark) 8) measuring red 2 fluorescence (661/15 nm) for detecting the fluorescent dye (Alexa Fluor647) introduced into the peptide fluorescent conjugate.
Using sample solutions of the peptide fluorescent conjugates 1 and 2, TAT-Alexa, and the fluorescent dye 1 prepared in the same manner as in Test Example 1, the red 2 fluorescence (661/15 nm) was measured and analyzed by flow cytometry by the same procedure as in Test Example 1. […]

TAT-Alexa: Alexa Fluor 647 C2 Maleimide added to the terminal Cys of Cys-TAT(47-57), commercially available cell-penetrating peptide (YGRKKRRQRRR; N-terminal Cys with Alexa Fluor 647; C-terminal amide; printed: Tyr-Gly-Arg-Lys-Lys-Arg-Arg-Gln-Arg-Arg-Arg-)
average value of the fluorescence intensities of Alexa Fluor 647 in cells (MFI) relative to cells treated with the fluorescent dye 1: about double
